Experimental data as given in PubChem BioAssay AID1963858 (Molecular Pharmacology Branch, DTP, NCI, 2024).

Test system: HOP-62 multicell spheroids with HUVEC/MSC, viability
Assay: Anticancer human tumor HOP-62 cell line growth inhibition [KRAS2];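 also: viability read after a week of compound exposure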;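 as to viability, T/C: 100% = DMSO vehicle-treated spheroids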
Details: for IC50: curve of first compound; for viability, T/C: stronger effect = lower value
In short: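 KRAS-mutant tumor cells were grown as spheroids with HUVEC endothelial cells and human MSCs as stroma. Targeted agents were tested alone and with KRAS pathway inhibitors. Doses started at or near clinical Cmax, or 10 microM, descending half-log.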

[1] = second compound 0.1 µM, first compound 0.0316 µM
[2] = second compound 0.1 µM, first compound 0.1 µM
[3] = second compound 0.1 µM, first compound 0.316 µM
[4] = second compound 0.1 µM, first compound 1 µM
[5] = second compound 0.1 µM, first compound 3.16 µM
[6] = second compound 0.1 µM, first compound 10 µM
[7] = second compound 0.316 µM, first compound 0.0316 µM
[8] = second compound 0.316 µM, first compound 0.1 µM
[9] = second compound 0.316 µM, first compound 0.316 µM
[10] = second compound 0.316 µM, first compound 1 µM
[11] = second compound 0.316 µM, first compound 3.16 µM
[12] = second compound 0.316 µM, first compound 10 µM
[13] = second compound 1 µM, first compound 0.0316 µM
[14] = second compound 1 µM, first compound 0.1 µM
[15] = second compound 1 µM, first compound 0.316 µM
[16] = second compound 1 µM, first compound 1 µM
[17] = second compound 1 µM, first compound 3.16 µM
[18] = second compound 1 µM, first compound 10 µM
[19] = second compound 3.16 µM, first compound 0.0316 µM
[20] = second compound 3.16 µM, first compound 0.1 µM
[21] = second compound 3.16 µM, first compound 0.316 µM
[22] = second compound 3.16 µM, first compound 1 µM
[23] = second compound 3.16 µM, first compound 3.16 µM
[24] = second compound 3.16 µM, first compound 10 µM
[25] = second compound 10 µM, first compound 0.0316 µM
[26] = second compound 10 µM, first compound 0.1 µM
[27] = second compound 10 µM, first compound 0.316 µM
[28] = second compound 10 µM, first compound 1 µM
[29] = second compound 10 µM, first compound 3.16 µM
[30] = second compound 10 µM, first compound 10 µM
[31] = second compound 0.1 µM, first compound 0.000316 µM
[32] = second compound 0.1 µM, first compound 0.001 µM
[33] = second compound 0.1 µM, first compound 0.00316 µM
[34] = second compound 0.1 µM, first compound 0.01 µM
[35] = second compound 0.316 µM, first compound 0.000316 µM
[36] = second compound 0.316 µM, first compound 0.001 µM
[37] = second compound 0.316 µM, first compound 0.00316 µM
[38] = second compound 0.316 µM, first compound 0.01 µM
[39] = second compound 1 µM, first compound 0.000316 µM
[40] = second compound 1 µM, first compound 0.001 µM
[41] = second compound 1 µM, first compound 0.00316 µM
[42] = second compound 1 µM, first compound 0.01 µM
[43] = second compound 3.16 µM, first compound 0.000316 µM
[44] = second compound 3.16 µM, first compound 0.001 µM
[45] = second compound 3.16 µM, first compound 0.00316 µM
[46] = second compound 3.16 µM, first compound 0.01 µM
[47] = second compound 10 µM, first compound 0.000316 µM
[48] = second compound 10 µM, first compound 0.001 µM
[49] = second compound 10 µM, first compound 0.00316 µM
[50] = second compound 10 µM, first compound 0.01 µM

SMILES | IC50 (second compound 0.1 µM) | IC50 (second compound 0.316 µM) | IC50 (second compound 1 µM) | IC50 (second compound 3.16 µM) | IC50 (second compound 10 µM) | viability, T/C [1] | viability, T/C [2] | viability, T/C [3] | viability, T/C [4] | viability, T/C [5] | viability, T/C [6] | viability, T/C [7] | viability, T/C [8] | viability, T/C [9] | viability, T/C [13] | viability, T/C [14] | viability, T/C [19] | viability, T/C [20] | viability, T/C [25] | viability, T/C [26] | other results
CC(C)NCC(C(=O)N1CCN(c2ncnc3c2C(C)CC3O)CC1)c1ccc(Cl)cc1 (stereo not given) + CNCc1ccccc1-c1csc(C(C)Nc2nc(C)nc3cc(OC)c(OC)cc23)c1 | 0.844 µM | 0.608 µM | 0.212 µM | < 0.0316 µM | < 0.0316 µM | 119% | 83% | 83.4% | 45.9% | 17.2% | 10.3% | 89.5% | 78.5% | 73.7% | 81.3% | 74.8% | 0.41% | 0.71% | 0.24% | 0.26% | viability, T/C [10]: 32.4%; viability, T/C [11]: 13.4%; viability, T/C [12]: 10.2%; viability, T/C [15]: 35.6%; viability, T/C [16]: 23.4%; viability, T/C [17]: 16.9%; viability, T/C [18]: 9.94%; viability, T/C [21]: 0.27%; viability, T/C [22]: 0.47%; viability, T/C [23]: 0.17%; viability, T/C [24]: 0.26%; viability, T/C [27]: 0.26%; viability, T/C [28]: 0.25%; viability, T/C [29]: 0.23%; viability, T/C [30]: 0.33%
CC(C)n1nc(-c2ccc3oc(N)nc3c2)c2c(N)ncnc21 + CNCc1ccccc1-c1csc(C(C)Nc2nc(C)nc3cc(OC)c(OC)cc23)c1 | 0.00445 µM | 0.00224 µM | 0.00178 µM | < 0.000316 µM | < 0.000316 µM | 22.2% | 15.9% | – | – | – | – | 19.5% | 15.9% | – | 17.3% | 14.1% | 2.66% | 0.67% | 0.38% | 0.52% | viability, T/C [31]: 113%; viability, T/C [32]: 86.7%; viability, T/C [33]: 57.9%; viability, T/C [34]: 32.5%; viability, T/C [35]: 89.5%; viability, T/C [36]: 69.2%; viability, T/C [37]: 40.2%; viability, T/C [38]: 27.9%; viability, T/C [39]: 75.9%; viability, T/C [40]: 63.1%; viability, T/C [41]: 35.3%; viability, T/C [42]: 28.9%; viability, T/C [43]: 0.36%; viability, T/C [44]: 0.49%; viability, T/C [45]: 0.36%; viability, T/C [46]: 0.46%; viability, T/C [47]: 0.46%; viability, T/C [48]: 0.4%; viability, T/C [49]: 0.42%; viability, T/C [50]: 0.42%
CC1(C)CCC(CN2CCN(c3ccc(C(=O)NS(=O)(=O)c4ccc(NCC5CCOCC5)c([N+](=O)[O-])c4)c(Oc4cnc5[nH]ccc5c4)c3)CC2)=C(c2ccc(Cl)cc2)C1 + CNCc1ccccc1-c1csc(C(C)Nc2nc(C)nc3cc(OC)c(OC)cc23)c1 | 5.71 µM | 4.57 µM | 3.38 µM | < 0.0316 µM | < 0.0316 µM | 92.1% | 89.5% | 82.5% | 95.3% | 71.6% | 29.5% | 81.2% | 77% | 76.5% | 90.1% | 76.2% | 1.65% | 25.9% | 0.12% | 0.16% | viability, T/C [10]: 81.6%; viability, T/C [11]: 61.8%; viability, T/C [12]: 24.9%; viability, T/C [15]: 67.8%; viability, T/C [16]: 73.1%; viability, T/C [17]: 54%; viability, T/C [18]: 14.9%; viability, T/C [21]: 17.9%; viability, T/C [22]: 40.3%; viability, T/C [23]: 13.5%; viability, T/C [24]: 1.45%; viability, T/C [27]: 0.16%; viability, T/C [28]: 0.18%; viability, T/C [29]: 0.15%; viability, T/C [30]: 0.22%
Cn1ncnc1[C@H]1c2n[nH]c(=O)c3cc(F)cc(c23)N[C@@H]1c1ccc(F)cc1 + CNCc1ccccc1-c1csc(C(C)Nc2nc(C)nc3cc(OC)c(OC)cc23)c1 | > 0.1 µM | > 0.1 µM | > 0.1 µM | < 0.000316 µM | < 0.000316 µM | 86.5% | 71% | – | – | – | – | 79.3% | 74.9% | – | 68.9% | 53.7% | 2.25% | 5.87% | 0.68% | 0.19% | viability, T/C [31]: 98.2%; viability, T/C [32]: 92.1%; viability, T/C [33]: 91.8%; viability, T/C [34]: 97.1%; viability, T/C [35]: 101%; viability, T/C [36]: 93.9%; viability, T/C [37]: 89.4%; viability, T/C [38]: 83.7%; viability, T/C [39]: 69.2%; viability, T/C [40]: 73%; viability, T/C [41]: 81.2%; viability, T/C [42]: 78.1%; viability, T/C [43]: 0.2%; viability, T/C [44]: 0.14%; viability, T/C [45]: 0.99%; viability, T/C [46]: 0.21%; viability, T/C [47]: 0.12%; viability, T/C [48]: 0.17%; viability, T/C [49]: 0.16%; viability, T/C [50]: 0.15%
